Data set [1] concerns inflammatory hyperalgesia induced by zymosan A. Put plainly: zymosan A model of inflammatory pain, mechanical sensitization. The class given is in vivo, mice. The following applies: 16 mg/kg i.p., 48 hours after zymosan A; n=6. As for the experimental part: Inflammatory pain is assessed in the zymosan A model. See Hargreaves, K., Dubner, R., Brown, F., Flores, C. & Joris, J. A new and sensitive method for measuring thermal nociception in cutaneous hyperalgesia. Pain 32, 77-88 (1988). Inflammatory pain is induced by subcutaneous injection of zymosan A (0.06 mg in mice; 1 mg in rats) into one hindpaw. In mice, 0.06 mg of zymosan A suspended in […] of 0.9% NaCl is injected subcutaneously into the plantar side of the left hindpaw. The model is also used in rats, but 1 mg of zymosan A is used. Heat hyperalgesia is assessed 24 h and 6 h after induction of inflammation in mice and rats, respectively.
Pain Studies—Inflammatory pain: Inflammatory pain was studied in the zymosan A model (Meller and Gebhart, 1997). 0.06 mg zymosan A (Sigma Chemicals) suspended in 20 μl 0.9% NaCl was injected subcutaneously into the plantar side of the left hindpaw. Mechanical sensitization was assessed 48 hours after induction of inflammation.
Pain Studies—Mechanical sensitization: Mechanical sensitivity was assessed with dynamic von Frey filaments (IITC, Woodland Hills, Calif.). […]
Statistical Analysis: For all different doses and vehicle, baseline paw withdrawal thresholds/latencies on day 7 after nerve ligation or on day 2 after zymosan A injection were subtracted from all later withdrawal thresholds and the area under the curve (AUC) was calculated. […]

Data set [2] concerns Sciatic Ligation neuropathic pain. As to the kind of experiment: T23 partial ligation of the sciatic nerve (mechanical allodynia). The following applies: dose 35.5 (HZ-166), 18 (JY-XHE-053), 1 (XLI-JY-DMH) mg/kg; TPE 2 hr. The class given is in vivo, rats. Here is the method:
Neuropathic pain. The pro- or antinociceptive effects of the compounds of the present invention are analyzed in two manners. […] Sterile technique will be used throughout the surgery. The upper thigh will be shaved and wiped off with ethanol and betadine. A small incision will then be made in the skin. The underlying muscle of the upper thigh will be separated and the sciatic nerve exposed. The nerve is separated from the surrounding connective tissue and slightly elevated by a pair of fine, curved forceps. Approximately ⅓ to ½ of the nerve is tied off by passing a needle (7.0) and nylon suture through the nerve. The muscle and skin incision are closed off separately with 5.0 suture and the animals kept warm until they have recovered from the anesthesia. This procedure is routinely done on the right side (ipsilateral) while a sham surgery is performed on the left hind leg (contralateral). The latter involves a similar procedure with the exception that the sciatic nerve on this side is only exposed. The rats will be closely monitored daily for the development of infection or untoward effects of the surgery in which case the animals will be immediately euthanized
After an appropriate time for recovery (7 days) the animals will be tested for the development of mechanical allodynia (abnormal response to a non-noxious stimulus). The animals are each put in a bottomless plexiglass box placed on a wire mesh (¼″) platform. After 30-60 minutes in which to acclimate, a baseline mechanical sensitivity is determined. This procedure is done by applying a series of calibrated Von Frey fibres perpendicularly to the plantar surface of each hind paw and holding it there for about 6 secs with enough force to slightly bend the fibre. After a positive response (withdrawal of the foot) is noted a weaker fibre is applied. This is repeated until a 50% threshold for withdrawal can be determined
The allodynic threshold is then redetermined after intraperitoneal administration of an investigational AED. Testing will be conducted at the time-to-peak effect of the AED as determined in the acute seizure model.

Data set [3] has as its system thermal hyperalgesia after CCI of the sciatic nerve. Put plainly: chronic constriction injury (CCI) model, heat hyperalgesia (plantar test). The class given is in vivo, mice. The conditions noted are these: 16 mg/kg i.p. Here is the method:
In addition, the pro- or antinociceptive effects of the compounds of the present invention are analyzed in the chronic constriction injury (CCI) model. The GABAA receptor subunit selective test compounds of the present invention are analysed in the CCI model in 7-8-week-old C57BL/6 mice. See Bennett, G. J. & Xie, Y. K. A peripheral mononeuropathy in rat that produces disorders of pain sensation like those seen in man. […] Seven to eight week old mice are anesthetized with isofluran. Unilateral constriction injury of the left sciatic nerve just proximal to the trifurcation is performed with three loose ligatures. […] Heat hyperalgesia, cold allodynia and mechanical sensitization are assessed 7-9 days after surgery. Mechanical sensitivity is assessed with electronic von Frey filaments (IITC).
Heat hyperalgesia is assessed by measuring paw withdrawal latencies on exposure to a defined radiant heat stimulus are measured with a commercially available apparatus (Plantar Test; Ugo Basile). […]
Pain studies—Neuropathic pain: HZ166 and gabapentin were analyzed in the chronic constriction injury (CCI) model. […] Heat hyperalgesia and mechanical sensitization were assessed 7-16 days after surgery.
Pain Studies—Heat hyperalgesia: Paw withdrawal latencies upon exposure to a defined radiant heat stimulus were measured using a commercially available apparatus (Plantar Test, Ugo Basile, Comerio, Italy). […]

The conditions of data set [4]: mice and rats after intraperitoneal (i.p.) application; Rivas et al., 2009; cited from earlier work.

Consider 1 compound from patent publication USRE47475E1, “Selective agents for pain suppression” (WiSys Technology Foundation, Inc., priority 2002, dated 2019).

Take `C#Cc1ccc2c(c1)C(c1ccccn1)=NCc1c(C(=O)OCC)ncn1-2` [HZ-166, 8-Acetylenyl-6-pyridin-2-yl-4H-benzo[f]imidazo[1,5-a][1,4]diazepine-3-carboxylic acid ethyl ester]: in data set [1], the “AUC of mechanical PWT” value stood at 1.55 ± 0.21 g·h. In data set [2], the “Change (% of Control) ± SEM, T23 Sciatic Ligation” value was 210 % of Control and the “Significance, T23 Sciatic Ligation” value is recorded as “yes”. In addition, the “time of peak effect on PWLs after administration” value in data set [3] worked out at 1 h. Further, the “AUC of PWL, injured paw” value in data set [3] (7 days after surgery, n=6) amounted to 4.33±1.95 s*h. Moreover, in data set [4], the pharmacokinetics result is listed as “suitable”.
